Reference: US5698541A, “2,4-diphosphonoglutaric acid derivatives, processes for their production and pharmaceutical agents containing these compounds” (Boehringer Mannheim GmbH, priority 1994, dated 1997)

Test system: non-stimulated bone resorption
Test: Inhibition of non-stimulated bone resorption by determining the excretion of [3H]-tetracycline in urine
Type: in vivo
Conditions: rats, subcutaneous, 2 × 200 mg/kg (8 a.m. and 5 p.m. on sixth day of urine collection); reduced [3H]-tetracycline excretion in urine on eighth day
Method: Inhibition of non-stimulated bone resorption by determining the excretion of [^3 H]-tetracycline in urine:
From birth onwards rats received a twice-weekly injection of increasing amounts of a solution of 3.7×10^5 Bq/ml (10 μCi/ml) [7-^3 H]-tetracycline ([^3 H]TC); New England Nuclear, Boston, Mass.) with a specific activity of 679 mCi/mmol. The volume per injection is increased from 50 μl/week to 250 μl in the fifth week and kept at this level for a further week. The total amount of administered [^3 H]TC was 20 μCi per rat. 51-day-old rats are transferred to individual metabolic cages and received a group feeding with feed which contained 0.5% Ca and 0.35% P. This feed was produced by addition of appropriate amounts of calcium and phosphate (SODI 2134, "Klingenthalmuhle"). The animals received distilled water ad libitum during the entire duration of the experiment. Collection of 24 hour urine was begun after 61 days. The urine was collected daily at 11 o'clock; the animals also received food at this time. On the sixth day after the start of the urine collection, the animals received subcutaneous injections of the substance (at 8 a.m. and 5 p.m.). […] The ^3 H-TC in urine is determined by liquid scintillation by adding 10 ml of the scintillator Pico-Fluor 30 (Packard International, Zurich, Switzerland) to 1 ml of the urine. […]

Compound | % rel. inhibition/dosage [%]
O=C(O)C(CC(CCCN1CCCC1)(C(=O)O)P(=O)(O)O)P(=O)(O)O (centres unmarked) [Example 4, 2,4-diphosphono-2-pyrrolidinopropylglutaric acid] | 37
NCCCCC(CC(C(=O)O)P(=O)(O)O)(C(=O)O)P(=O)(O)O (centres unmarked) [Example 5] | 45
